# Values of other authors in patent US20040228911A1, “Vinorelbine compositions and methods of use” (NeoPharm, Inc., priority 2001, published 2004).
# Structures can show the parent of a compound that is named as a salt.
# Key:
# [1] = distilled water
# mitotic microtubules = conditions: intact tectal plates from mouse embryos
# axonal microtubules = conditions: intact tectal plates from mouse embryos
aqueous solubility [1],SMILES,"concentration inhibiting mitotic microtubule formation, inducing a blockade of cells at metaphase (mitotic microtubules) [µM]",concentration producing depolymerization of axonal microtubules (axonal microtubules) [µM]
less than 1000 mg/mL,"CCC1=C[C@@H]2CN(C1)Cc1c([nH]c3ccccc13)[C@@](C(=O)OC)(c1cc3c(cc1OC)N(C)[C@H]1[C@@](O)(C(=O)OC)[C@H](OC(C)=O)[C@]4(CC)C=CCN5CC[C@]31[C@@H]54)C2 [Vinorelbine tartrate, 3′,4′-didehydro-4′-deoxy-C-norvincaleukoblastine [R—(R,R)-2,3-dihydroxybutanedioate (1:2)(salt)]]",–,–
–,CC[C@]1(O)C[C@@H]2CN(CCc3c([nH]c4ccccc34)[C@@](C(=O)OC)(c3cc4c(cc3OC)N(C)[C@H]3[C@@](O)(C(=O)OC)[C@H](OC(C)=O)[C@]5(CC)C=CCN6CC[C@]43[C@@H]65)C2)C1 [vinblastine],2,30
–,CC[C@]1(O)C[C@H]2CN(CCc3c([nH]c4ccccc34)[C@@](C(=O)OC)(c3cc4c(cc3OC)N(C=O)[C@H]3[C@@](O)(C(=O)OC)[C@H](OC(C)=O)[C@]5(CC)C=CCN6CC[C@]43[C@@H]65)C2)C1 [vincristine],2,5
–,"CCC1=C[C@@H]2CN(C1)Cc1c([nH]c3ccccc13)[C@@](C(=O)OC)(c1cc3c(cc1OC)N(C)[C@H]1[C@@](O)(C(=O)OC)[C@H](OC(C)=O)[C@]4(CC)C=CCN5CC[C@]31[C@@H]54)C2 [vinorelbine, 3′,4′-didehydro-4′-deoxy-C-norvincaleukoblastine [R—(R,R)-2,3-dihydroxybutanedioate (1:2)(salt)]]",2,40
